The supplement of paper PMC10307832

Columns and labels:
Test in all cases: relative viability (nuclei count vs DMSO), 5 days (fraction); higher = more cells survive
Zosuquidar + Crizotinib = compound: O[C@@H](COc1cccc2ncccc12)CN1CCN([C@@H]2c3ccccc3[C@@H]3[C@H](c4ccccc42)C3(F)F)CC1 [Zosuquidar] + C[C@@H](Oc1cc(-c2cnn(C3CCNCC3)c2)cnc1N)c1c(Cl)ccc(F)c1Cl [Crizotinib] (partner 1 µM)
Method in brief: (§1)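 Five library-drug doses in √10 steps were combined with a fixed anchor-drug dose, or a single drug was given alone, by pin tool to lung cancer cell lines in 1536-well plates the day after seeding. Nuclei were stained and counted after 5 days. Relative viability is the nuclei count in treated wells over that in vehicle wells, taken as the median of duplicate plates.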

[1] = compound: COc1cc2nccc(Oc3ccc(NC(=O)C4(C(=O)Nc5ccc(F)cc5)CC4)cc3)c2cc1OC [Cabozantinib] + CC(C)C[C@H](NC(=O)[C@H](Cc1ccccc1)NC(=O)c1cnccn1)B(O)O [Bortezomib] (partner 0.002 µM)
Method in brief: as §1

Zosuquidar + Foretinib = compound: O[C@@H](COc1cccc2ncccc12)CN1CCN([C@@H]2c3ccccc3[C@@H]3[C@H](c4ccccc42)C3(F)F)CC1 [Zosuquidar] + COc1cc2c(Oc3ccc(NC(=O)C4(C(=O)Nc5ccc(F)cc5)CC4)cc3F)ccnc2cc1OCCCN1CCOCC1 [Foretinib] (partner 0.25 µM)
Method in brief: as §1

Zosuquidar + Lapatinib = compound: O[C@@H](COc1cccc2ncccc12)CN1CCN([C@@H]2c3ccccc3[C@@H]3[C@H](c4ccccc42)C3(F)F)CC1 [Zosuquidar] + CS(=O)(=O)CCNCc1ccc(-c2ccc3ncnc(Nc4ccc(OCc5cccc(F)c5)c(Cl)c4)c3c2)o1 [Lapatinib] (partner 2 µM)
Method in brief: as §1

Cell Line	relative viability (Zosuquidar + Crizotinib; first compound 0.01 µM)	relative viability (Zosuquidar + Crizotinib; first compound 0.03162 µM)	relative viability (Zosuquidar + Crizotinib; first compound 0.1 µM)	relative viability (Zosuquidar + Crizotinib; first compound 0.3162 µM)	relative viability (Zosuquidar + Crizotinib; first compound 1 µM)	relative viability ([1]; first compound 0.02 µM)	relative viability ([1]; first compound 0.06325 µM)	relative viability ([1]; first compound 0.2 µM)	relative viability ([1]; first compound 0.6325 µM)	relative viability ([1]; first compound 2 µM)	relative viability (Zosuquidar + Foretinib; first compound 0.01 µM)	relative viability (Zosuquidar + Foretinib; first compound 0.03162 µM)	relative viability (Zosuquidar + Foretinib; first compound 0.1 µM)	relative viability (Zosuquidar + Foretinib; first compound 0.3162 µM)	relative viability (Zosuquidar + Foretinib; first compound 1 µM)	relative viability (Zosuquidar + Lapatinib; first compound 0.01 µM)	relative viability (Zosuquidar + Lapatinib; first compound 0.03162 µM)	relative viability (Zosuquidar + Lapatinib; first compound 0.1 µM)	relative viability (Zosuquidar + Lapatinib; first compound 0.3162 µM)	relative viability (Zosuquidar + Lapatinib; first compound 1 µM)
LXF-289	0.768	0.861	0.799	0.816	0.876	1.09	1.03	1.01	0.956	1	0.956	1.02	0.94	1.02	0.968	0.876	0.908	0.872	0.913	0.923
201T	0.986	0.891	0.996	0.983	1.04	1.14	1.15	1.05	1.08	1.12	1.16	1.17	0.935	1.04	1.19	0.996	1.05	0.881	1.02	0.997
HCC-827	0.931	0.923	0.937	0.871	0.872	0.981	1.1		1.11	1.06	1.05	1.03	0.9	1.01	1.02	0.183	0.246	0.178	0.19	0.246
NCI-H1703	0.785	1.13	0.682	0.582	1.01	0.243	0.237	0.235	0.194	0.154	0.353	0.287	0.341	0.393	0.33	1.17	1.27	0.96	1.45	1.16
NCI-H1975	0.923	0.941	1.01	0.924	1.09	0.409	0.403	0.357	0.402	0.389	0.959	0.832	1.02	0.952	1.02	0.796	0.7	0.945	0.991	0.858
NCI-H2023	0.593	0.679	0.743	0.741	0.606	0.893	0.957	0.819	0.889	1.03	0.936	0.759	0.689	0.998	0.99	0.848	0.856	0.712	1.45	0.955
COR-L 105	0.953	0.727	0.788	0.838	0.73	0.799	0.999		0.702	0.837	0.865	0.888	1.29	1.04	0.899	0.35	0.389	0.324	0.366	0.386
NCI-H23	0.467	0.495	0.512	0.534	0.478		1.31	0.996	0.959	0.945	0.979	0.875	1.02	1.04	1.09	1.15	1.16	1.38	1.23	1.15
NCI-H1993	0.864	0.859	0.789	1.01	0.881	0.829	1.2	0.716	0.816	0.988	0.758	0.724	0.701	0.81	0.673	0.965	0.908	0.751	1.04	0.79
Calu-6	0.872	0.764	0.879	0.844	0.791	1.09	1.05	1.04	1.04	0.949	0.842	0.916	1.03	0.942	0.902	1.04	1.09	1.2	1.06	1.06
NCI-H460	0.813	0.906	1.01	0.916	1.02	1.38	1.15	1.12	1.13	1.13	0.922	0.987	0.987	0.969	0.952	0.927	1	0.983	0.977	1.04
NCI-H3122	0.271	0.274	0.24	0.275	0.252	1	1.01	0.978	0.924	0.964	0.891	0.922	0.909	0.934	0.955	0.997	0.906	1	1.01	1.01
HCC-78	0.352	0.321		0.362	0.322	0.409	0.436	0.339	0.227	0.21	0.549	0.548		0.571	0.606	0.866	1.03		0.893	0.572
COR-L23	0.661	0.699	0.787	0.647	0.716	1.25	1	1.01	1.06	1.07	0.994	0.926	0.956	0.962	1.06	0.953	0.934	0.968	1.15	1.34
NCI-H2009	1.02	1.01	1.05	1.06	1.01	1.06	1.15	1.07	1.16	0.998	1.24	1.2	1.24	1.2	1.23	0.931	0.905	0.891	1.09	0.849
NCI-H322M	0.896	0.929	0.861	0.739	0.91	1.2	1.34		1.17	1.36	0.961	1.19	0.723	0.983	0.972	0.552	0.63	0.417	0.582	0.567
